Data set [1] deals with S. aureus. The data set can be described thus: Antibacterial susceptibility testing, IC90 determination with 10% human serum (STA + 10% HS). The class given is cell-based, Staphylococcus aureus. Particulars: Staphylococcus aureus, human serum at final concentration of 10%, read-out: STA + 10% HS (361.169) IC90. A digest of the protocol:
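Broth microdilution in Mueller-Hinton broth with 10% human serum, 5×10^5 CFU/ml S. aureus, two-fold compound dilutions (typically 63 to 0.49 μM), 1.25% DMSO, 16-20 h at 35° C. Growth read fluorometrically with resazurin (ex 540/em 590 nm); IC90 in μg/ml is the 90% growth-inhibitory concentration.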

Data set [2] addresses T1, S. aureus ATCC 29213 FabI (Staphylococcus aureus, UniProt Q6GI75).
T1 sequence (Q6GI75 1-256): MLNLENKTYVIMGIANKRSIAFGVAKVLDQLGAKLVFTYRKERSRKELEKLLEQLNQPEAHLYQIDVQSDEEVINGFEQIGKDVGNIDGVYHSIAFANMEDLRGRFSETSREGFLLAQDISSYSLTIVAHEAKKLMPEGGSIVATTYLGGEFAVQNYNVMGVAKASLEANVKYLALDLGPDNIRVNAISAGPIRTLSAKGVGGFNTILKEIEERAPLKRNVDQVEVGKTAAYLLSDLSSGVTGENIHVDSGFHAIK
The data set can be described thus: Staphylococcus aureus FabI enzyme inhibition assay. In kind it is biochemical. As to conditions: read-out: FabI (300.235) IC50 (converted). Put shortly:
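S. aureus ATCC 29213 FabI (50 μg/ml) with 250 μM crotonoyl-CoA and 625 μM NADH in 100 mM NaADA pH 6.5, inhibitor 50–0.39 μM, 30 min at room temperature. Stopped by Tris pH 9.0 shift; NADH at 340 nm versus no-compound and no-enzyme controls; IC50 in μg/ml.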

The nature of data set [3]: Cytotoxicity MTT assay (HELAM). The class given is cell-based, Human. Particulars: human, HelaM cells, read-out: HELAM (222.125) CC50. Put shortly: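 HelaM cells exposed 72 h at 37° C to serial dilutions, typically 25 to 0.8 μM, in 0.5% DMSO. MTT formazan dissolved in 2-propanol, absorbance at 540 nm minus 690 nm; CC50 is concentration halving viability.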
A general note: Tetrazolium dyes change colour on reduction, which living cells bring about.

The test system of data set [4] is Staphylococcus aureus ATCC 29213. The data set can be described thus: Antibacterial susceptibility testing, IC90 determination (STA). As to conditions: resazurin; for IC90: Staphylococcus aureus, ATCC29213, Staphylococcus aureus ATCC 29213, broth microdilution, read-out: STA (361.159) IC90. In kind it is cell-based. A digest of the protocol:
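S. aureus ATCC 29213 tested by broth microdilution in Mueller-Hinton broth, 5×10^5 CFU/ml, two-fold compound dilutions typically 63 to 0.49 μM, 1.25% DMSO, 16-20 h at 35° C. Growth read fluorometrically with resazurin (ex 540/em 590 nm); IC90 in μg/ml is 90% growth-inhibitory concentration.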
A general note: The colour change of resazurin is a common sign of viable cells or microbes.

The values below come from US9315522B2, “Antibacterial compounds” (JANSSEN SCIENCES IRELAND UC, priority 2012, dated 2016).

Converted amounts (≈) assume the structure as drawn.

The term IC90 denotes the point of the concentration-response curve where the effect stands at 90%. As a reminder, the melting point is the temperature, or range, at which the solid turns liquid. Usually IC50 stands for the concentration at which inhibition is half-maximal. One may read the CC50 as the concentration at which the toxic effect on the cells reaches its halfway point.

In turn, `O=C1CNC(=O)c2cc(/C=C/C(=O)N3CC4C=C(c5ccccc5)CC4C3)cnc2N1` (stereo not shown) [compound 66] had a melting point of 226 °C. The IC90 in data set [1] turned out to be 0.79 µg/mL. For the same compound, the half-inhibitory concentration (IC50) in data set [2] was 651 nM. The cytotoxic concentration (CC50) at 72 h in data set [3] is more than 10.4 µg/mL. In addition, the IC90 in data set [4] is 0.76 µg/mL (≈ 1.83 µM).
Consider `O=C1Nc2ncc(/C=C/C(=O)N3CC4C=C(c5ccsc5)CC4C3)cc2CN2CCOCC12` (stereo not shown) [compound 70], for which the melting point is more than 250 °C. In addition, the IC90 in data set [1] turned out to be 0.2 µg/mL. Besides, in data set [2], the IC50 was 1450 nM. For the same compound, in data set [3], the CC50 at 72 h is more than 11.6 µg/mL. The IC90 in data set [4] is 0.17 µg/mL (≈ 0.368 µM).
Taken in the same sequence, the figures for `CC(=O)N1CCN2Cc3cc(/C=C/C(=O)N4CC5C=C(c6cccs6)CC5C4)cnc3NC(=O)C2C1` (stereo not shown) [compound 75] were 215 to 230 °C, less than 0.25 µg/mL, 1290 nM, more than 12.7 µg/mL and less than 0.25 µg/mL.
Taken in the same sequence, the figures for `O=C1Nc2ncc(/C=C/C(=O)N3CC4C=C(c5ccccc5)CC4C3)cc2C(=O)N2CCOCC12` (stereo not shown) [compound 76] were 278.12 °C, 0.41 µg/mL, 1230 nM, more than 11.8 µg/mL and 0.25 µg/mL (≈ 0.531 µM).
Taken in the same sequence, the figures for `O=C1Nc2ncc(/C=C/C(=O)N3CC4C=C(c5ccccc5)CC4C3)cc2CN2CCSCC12` (stereo not shown) [compound 77] were 214 °C, 0.59 µg/mL, 1180 nM, 1.2 µg/mL (≈ 2.54 µM) and 0.26 µg/mL (≈ 0.55 µM).
Compound `O=C1Nc2ncc(/C=C/C(=O)N3CC4C=C(c5ccccc5)CC4C3)cc2CN2CCOCC12` (stereo not shown) [compound 78] yielded a melting point of 242 °C. Further, the concentration for an effect of 90% (IC90) in data set [1] is less than 0.22 µg/mL. In data set [2], the IC50 is 1070 nM. The CC50 at 72 h in data set [3] was more than 11.5 µg/mL. Moreover, in data set [4] (Staphylococcus aureus ATCC 29213, broth microdilution), the “STA (361.159) IC90” value stood at 0.31 µg/mL.
Take `O=C1Nc2ncc(/C=C/C(=O)N3CC4C=C(c5ccncc5)CC4C3)cc2CN2CCOCC12` (stereo not shown) [compound 80]: the melting point was 212 °C. Also, the IC90 in data set [1] turned out to be 0.38 µg/mL. The IC50 in data set [2] is 743 nM. For the same compound, in data set [3], the CC50 at 72 h is more than 11.5 µg/mL. Besides, the 90% effect concentration (IC90) in data set [4] worked out at 0.42 µg/mL (≈ 0.918 µM).
Taken in the same sequence, the figures for `CN1CCN2C(=O)c3cc(/C=C/C(=O)N4CC5C=C(c6ccccc6)CC5C4)cnc3NC(=O)C2C1` (stereo not shown) [compound 82] were more than 270 °C, 0.43 µg/mL, 993 nM, more than 12.1 µg/mL and 0.45 µg/mL (≈ 0.931 µM).
Taken in the same sequence, the figures for `CC(=O)N1CCN2C(=O)c3cc(/C=C/C(=O)N4CC5C=C(c6ccccc6)CC5C4)cnc3NC(=O)C2C1` (stereo not shown) [compound 83] were 262 to 264 °C, 0.47 µg/mL, 1230 nM, more than 12.9 µg/mL and 0.48 µg/mL (≈ 0.938 µM).
Taken in the same sequence, the figures for `Cn1nccc1C1=CC2CN(C(=O)/C=C/c3cnc4c(c3)CN3CCOCC3C(=O)N4)CC2C1` (stereo not shown) [compound 85] were 226 °C, 1.62 µg/mL, 955 nM, more than 11.6 µg/mL and 1.67 µg/mL (≈ 3.63 µM).
Compound `O=C1CC2CCCCN2Cc2cc(/C=C/C(=O)N3C[C@@H]4CC(c5ccccc5)=C[C@@H]4C3)cnc2N1` (stereo partly shown) [compound 90] gave a melting point of 214.9 to 232.7 °C. The concentration for an effect of 90% (IC90) in data set [1] was less than 0.21 µg/mL. The IC50 in data set [2] was 832 nM. The CC50 at 72 h in data set [3] worked out at 4.4 µg/mL (≈ 9.39 µM). Further, the IC90 in data set [4] is less than 0.21 µg/mL.
